Reference: publication PMC11232385, “Selective depletion of HBV-infected hepatocytes by class A capsid assembly modulators requires high levels of intrahepatic HBV core protein” (Antimicrobial Agents and Chemotherapy, 2024)
Read-outs that look alike come from different tables or passages of the source.

Assays:
HBV [1] = system: HBV; parameters: method as in doi:10.1016/S0168-8278(20)32197-8; conditions: cited from earlier work
HBV genotype D = experiment: Antiviral activity in HBV-infected PHH, drugs added day 3 post infection, 6 days of treatment; format: cell-based, Hepatitis B virus
Procedure: (§1) Cryopreserved PHHs isolated from multiple donors were purchased from Thermo Fisher Scientific (Waltham, MA), Bioreclamation IVT (Hicksville, NY), or Lonza (USA). PHH culturing conditions as previously described ([11]). Approximately 24 h after plating, PHH was infected with HepAD38-derived HBV virions ([36]) (genotype D virus) at 500 viral genome equivalents per cell in a maintenance medium supplemented with 4% PEG 8000 (Promega, Madison, WI; V3011). The infection was allowed to proceed for 20–24 h before removing remaining extracellular virions by washing with a maintenance medium three times.
Extracellular HBsAg and HBeAg were detected in culture media by an electrochemiluminescence assay (Meso Scale Discovery [MSD]) as previously described ([37]).
Extracellular HBV DNA from PHH supernatants was purified using the Qiagen DNeasy 96 kit (69582) following the protocol recommended by the manufacturer. Quantification of HBV DNA by qPCR amplification of the HBV X region of the genome was performed as previously reported ([11]).
(§2) Antiviral activity or cytotoxicity of each test compound was determined from, extracellular HBV DNA, HBeAg, HBsAg, and alamarBlue data by comparing compound-treated PHH to DMSO-treated PHH to generate a percent of DMSO control value (% DMSO control). The % DMSO control was calculated by the following equation: % DMSO Control = 100× (XC/XD) where XC is the signal from the compound-treated PHH, and XD is the signal from the DMSO-treated PHH. The percentage of DMSO control for HBV DNA, HBeAg, HBsAg, and alamarBlue was plotted vs the log of each compound concentration in GraphPad Prism (version 6; GraphPad Software, La Jolla, CA) to generate dose-response curves. […] Error bars represent SD. Statistical analyses were performed by two-way analysis of variance (ANOVA) and Pearson’s correlation tests.

PHH = experiment: Cytotoxicity (alamarBlue) in HBV-infected PHH, 6 days of treatment; format: cell-based, human
Procedure: as §1, §2

AAV-HBV (HBV genotype D) = experiment: Efficacy study in the AAV-HBV mouse model; format: in vivo, C57BL/6 mice; conditions: for serum ALT: during 56 days of treatment; for serum HBV DNA reduction / reduction of HBc-positive cells in the liver / HBeAg reduction / HBsAg reduction: end of treatment (day 56); for serum HBV DNA reduction: oral QD; for reduction of HBc-positive cells in the liver: immunofluorescence; for HBeAg reduction / HBsAg reduction: relative to vehicle
Procedure: Recombinant AAV (serotype 8) carrying the 1.3 copy HBV genome (genotype D; serotype ayw) and empty AAV were provided by Beijing FivePlus Molecular Medicine Institute (Beijing, China). C57BL/6 mice were provided by Shanghai Lingchang Bio Tech Co. Ltd (Shanghai, China). Studies were conducted by Covance Pharmaceutical R&D (Shanghai, China). All procedures implemented during the studies followed local animal welfare legislation, Covance global policies and procedures, and the Guide for the Care and Use of Laboratory Animals.
C57BL/6 mice (male; 4–5 weeks of age) were injected with 200 µL PBS containing 1 × 10^11 vge recombinant virus per mouse through the tail vein. Twenty-eight days after AAV-HBV injection, the mice were bled retro-orbitally to monitor HBsAg and HBV genomic DNA in serum. Based on the HBsAg, HBeAg, and HBV DNA levels and body weight, AAV-HBV-infected mice were selected and randomized into groups (six animals per group) for compound and/or siRNA treatment. […] LNP empty and LNP siRNA 3 mg/kg were injected intravenously at 4 mL/kg on dosing days 0, 14, 28, 42, and 56. […] Serum HBsAg, HBeAg, and HBV DNA were measured twice weekly. ALT was measured once weekly throughout the study. Serum HBsAg and HBeAg were determined by […] i2000 (Abbott Laboratories, Lake Bluff, IL, USA). Serum HBV-DNA was analyzed by ABI7500 (Applied Biosystems, Foster City, CA, USA) and a detection kit (Sansure Biotech Inc., Changsha, Hunan, China). Serum ALT was determined using Roche Cobas 6000 Chemistry Analyzer (Roche Diagnostics, Mannheim, Germany) and supporting reagents.
(§3) Dewaxing and unmasking of antigens were performed on a Bond RX autostainer (Leica Biosystem), and subsequent assay modified for a single round of staining was performed using the Opal technology workflow (Akoya Biosciences), as described previously ([39]).

HBV genotype C = format: in vivo, uPA-SCID mice; conditions: uPA-SCID mouse; for mean decrease of serum HBV DNA: compared to the vehicle, 84 days oral QD; for HBsAg decline: day 84 vs day 0
Procedure: General health observations including weight were monitored weekly. All animal protocols were performed in accordance with the Guide for the Care and Use of Laboratory Animals and approved by the Animal Welfare Committee of Phoenix Bio Co., Ltd. All mice were housed individually and maintained in accordance with the Animal Ethics Committee of PhoenixBio (resolution #2214).
HBV-infected mice were randomized into four different treatment groups based on body weight, blood human albumin (h-Alb), and serum HBV DNA concentrations. All mice had blood h-Alb levels above 12 mg/mL and serum HBV DNA levels above 6.8 × 10^8 copies/mL. […] Mice were followed for an additional 28 days following cessation of treatment at day 84. Mouse serum was monitored weekly for serum HBV DNA and HBV antigens and biweekly for human (h) ALT1. Serum HBsAg and HBeAg concentrations were determined by SRL, Inc. (Tokyo, Japan) based on Chemiluminescent Enzyme Immuno Assay. HBV DNA concentration was performed using the TaqMan Fast Advanced Master Mix (Applied Biosystems, Thermo Fisher Scientific Inc.) and Applied Biosystems 7500 Real-Time PCR System (Applied Biosystems). Serum h-ALT1 concentration was determined by the Institute of Immunology Co., Ltd. (Tokyo, Japan) based on Enzyme-Linked ImmunoSorbent Assay.
as §3

[2] = AAV-HBV mouse, 100 mg-eq/kg oral QD
[3] = uPA-SCID mouse, 100 mg-eq/kg oral QD
HBV cccDNA = conditions: cited from earlier work
HBV [4] = system: HBV; parameters: method as in doi:10.1016/S0168-8278(22)00964-3, doi:10.1016/S0168-8278(22)02029-3; conditions: treatment-naïve and NA-suppressed patients, with an NA; cited from earlier work

CCOC(=O)C1=C(CN2CCOCC2)NC(c2nccs2)=NC1c1ccc(F)cc1Br (stereo not shown) [GLS4]
HBsAg reduction (HBV [1]; treatment-naïve HBeAg-positive patients): 0.4 log10 IU/mL
HBsAg effect (HBV [1]; virally suppressed patients): no effect

CNC(=O)C1(NC(=O)C(=O)c2c(C)c(C(=O)Nc3ccc(F)c(F)c3)n3c2CCC3)CC(F)(F)C1 [GS-SBA-1P]
EC50 (HBV genotype D; extracellular HBV DNA, mean ± SD, read-out: Viral DNA EC50): 12 ± 1.2 nM
EC50 (HBV genotype D; read-out: HBeAg EC50): > 2000 nM
EC50 (HBV genotype D; read-out: HBsAg EC50): > 2000 nM
CC50 (PHH): > 2000 nM
serum ALT (AAV-HBV (HBV genotype D)): no changes
serum HBV DNA reduction (AAV-HBV (HBV genotype D)): 3.7 log10
reduction of HBc-positive cells in the liver (AAV-HBV (HBV genotype D)): minimal reduction
HBeAg reduction (AAV-HBV (HBV genotype D)): no changes
HBsAg reduction (AAV-HBV (HBV genotype D)): no changes
mean decrease of serum HBV DNA (HBV genotype C): 5.0 log10
HBsAg decline (HBV genotype C): 0.4 log10
reduction of HBc-positive cells in the liver (HBV genotype C; immunofluorescence, compared to vehicle or TAF-treated animals): 30%
plasma and liver concentrations over the paEC50 [2]: approximately 76 fold
plasma exposures over the mouse plasma-adjusted EC50 of HBV DNA production [3]: greater than 76 fold
concentration blocking cccDNA establishment over the HBV DNA plasma-adjusted EC50 (HBV cccDNA): six-fold

CCOC(=O)C1=C(CN2CCN3C(=O)N(CC(C)(C)C(=O)O)C[C@@H]3C2)N=C(c2nccs2)N[C@H]1c1cccc(F)c1C [RG7907]
HBsAg reduction (HBV [4]): no significant reduction of HBsAg

CC(C)OC(=O)[C@H](C)N[P@](=O)(CO[C@H](C)Cn1cnc2c(N)ncnc21)Oc1ccccc1 [TAF, tenofovir alafenamide]
serum ALT (AAV-HBV (HBV genotype D)): no changes
serum HBV DNA reduction (AAV-HBV (HBV genotype D)): 2.5 log10
reduction of HBc-positive cells in the liver (AAV-HBV (HBV genotype D)): no change
HBeAg reduction (AAV-HBV (HBV genotype D)): no changes
HBsAg reduction (AAV-HBV (HBV genotype D)): no changes
mean decrease of serum HBV DNA (HBV genotype C): 3.6 log10
HBsAg decline (HBV genotype C): 0.35 log10
